According to ChEMBL document CHEMBL1255270, “Relationship between antibiotic use and incidence of MexXY-OprM overproducers among clinical isolates of Pseudomonas aeruginosa” (2008):
In brackets after ≈: the same amount, converted by molar mass.

How the values were obtained:
Format in all cases: functional
Pseudomonas aeruginosa [1] = assay: Antimicrobial activity against MexXY-OprM-overproducing Pseudomonas aeruginosa PAO1 harboring MexY and MexZ mutant gene selected after 8 ug/ml of amikacin exposure
Pseudomonas aeruginosa [2] = assay: Antimicrobial activity against MexXY-OprM-overproducing Pseudomonas aeruginosa PAO1 harboring MexY agrW mutant and MexZ mutant gene selected after 4 ug/ml of cefepime exposure
Pseudomonas aeruginosa [3] = assay: Antimicrobial activity against MexXY-OprM-overproducing Pseudomonas aeruginosa PAO1 harboring MexY agrW mutant and MexZ mutant gene selected after 0.25 ug/ml of ciprofloxacin exposure
Pseudomonas aeruginosa [4] = assay: Antimicrobial activity against MexXY-OprM-overproducing Pseudomonas aeruginosa PAO1 harboring MexY agrZ mutant and MexZ mutant gene selected after 4ug/ml of gentamycin exposure
Pseudomonas aeruginosa [5] = assay: Antimicrobial activity against MexXY-OprM-overproducing Pseudomonas aeruginosa PAO1 harboring MexY agrW mutant and MexZ mutant gene selected after 8 ug/ml of amikacin exposure
Pseudomonas aeruginosa [6] = assay: Antimicrobial activity against MexXY-OprM-overproducing Pseudomonas aeruginosa PAO1 harboring MexY and MexZ mutant gene selected after 0.25 ug/ml of ciprofloxacin exposure
Pseudomonas aeruginosa [7] = assay: Antimicrobial activity against MexXY-OprM-overproducing Pseudomonas aeruginosa PAO1 harboring MexY and MexZ mutant gene selected after 4 ug/ml of cefepime exposure
Pseudomonas aeruginosa [8] = assay: Antimicrobial activity against mexXY-OprM-overproducing Pseudomonas aeruginosa PAO1
Pseudomonas aeruginosa [9] = assay: Antimicrobial activity against MexXY-OprM-overproducing Pseudomonas aeruginosa PAO1 harboring MexY agrZ mutant and MexZ mutant gene selected after 1 ug/ml of tobramycin exposure
Pseudomonas aeruginosa [10] = assay: Antimicrobial activity against MexXY-OprM-overproducing Pseudomonas aeruginosa PAO1 harboring MexY agrW mutant and MexZ mutant gene selected after 1 ug/ml of oflaxacin exposure
Pseudomonas aeruginosa [11] = assay: Antimicrobial activity against MexXY-OprM-overproducing Pseudomonas aeruginosa PAO1 harboring MexY agrZ mutant and MexZ mutant gene selected after 1 ug/ml of Norfloxacin exposure
Pseudomonas aeruginosa [12] = assay: Antimicrobial activity against mexXY-OprM-overproducing Pseudomonas aeruginosa isolate PA/XY assessed as zone of inhibition by disk diffusion method
Pseudomonas aeruginosa [13] = assay: Antimicrobial activity against mexXY-OprM-overproducing Pseudomonas aeruginosa clinical isolate

Compound	MIC (Pseudomonas aeruginosa [1])	MIC (Pseudomonas aeruginosa [2])	MIC (Pseudomonas aeruginosa [3])	MIC (Pseudomonas aeruginosa [4])	MIC (Pseudomonas aeruginosa [5])	MIC (Pseudomonas aeruginosa [6])	MIC (Pseudomonas aeruginosa [7])	MIC (Pseudomonas aeruginosa [8])	MIC (Pseudomonas aeruginosa [9])	MIC (Pseudomonas aeruginosa [10])	MIC (Pseudomonas aeruginosa [11])	inhibition zone (IZ) (Pseudomonas aeruginosa [12])	MIC (Pseudomonas aeruginosa [13])
CO/N=C(\C(=O)N[C@@H]1C(=O)N2C(C(=O)[O-])=C(C[N+]3(C)CCCC3)CS[C@H]12)c1csc(N)n1	4 µg/mL	4 µg/mL	4 µg/mL	4 µg/mL	4 µg/mL	4 µg/mL	4 µg/mL	2 µg/mL (≈ 4.16 µM)	4 µg/mL	4 µg/mL	4 µg/mL	–	–
NCC[C@H](O)C(=O)N[C@@H]1C[C@H](N)[C@@H](O[C@H]2O[C@H](CN)[C@@H](O)[C@H](O)[C@H]2O)[C@H](O)[C@H]1O[C@H]1O[C@H](CO)[C@@H](O)[C@H](N)[C@H]1O [AMIKACIN]	8 µg/mL	8 µg/mL	8 µg/mL	8 µg/mL	8 µg/mL	8 µg/mL	8 µg/mL	4 µg/mL (≈ 6.83 µM)	8 µg/mL	8 µg/mL	8 µg/mL	<20 mm	4 µg/mL (≈ 6.83 µM)
O=C(O)c1cn(C2CC2)c2cc(N3CCNCC3)c(F)cc2c1=O [CIPROFLOXACIN]	–	–	–	–	–	–	–	0.12 µg/mL (≈ 0.362 µM)	–	–	–	–	–
NC[C@H]1O[C@H](O[C@H]2[C@H](O)[C@@H](O[C@H]3O[C@H](CO)[C@@H](O)[C@H](N)[C@H]3O)[C@H](N)C[C@@H]2N)[C@H](N)C[C@@H]1O [TOBRAMYCIN]	2 µg/mL	2 µg/mL	2 µg/mL	2 µg/mL	2 µg/mL	2 µg/mL	2 µg/mL	1 µg/mL (≈ 2.14 µM)	2 µg/mL	2 µg/mL	2 µg/mL	<20 mm	1 µg/mL (≈ 2.14 µM)
GENTAMICIN	8 µg/mL	8 µg/mL	8 µg/mL	8 µg/mL	8 µg/mL	8 µg/mL	8 µg/mL	4 µg/mL	8 µg/mL	8 µg/mL	8 µg/mL	< 20 mm	2 µg/mL
